# Legend:
# [1] = biological target: T1, Avi-KRAS WT (1-169) GppNHp/RAF1 RBD-3xFLAG (52-151) (Homo sapiens, UniProt P01116); experiment: Raf1-KRAS WT-GppNHP disruption HTRF assay (Biological Example 1); assay type: binding
# T1 construct: Avi-KRAS WT (1-169)
# Summary of the method: (§1)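 Protein mix, 1 h RT, 700 rpm; reagent mix, 1 h RT, 700 rpm; HTRF read. Buffer Tris pH 7.5/NaCl/MgCl2/BSA/Tween, 10% DMSO. Output % activity, DMSO = 100%.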
# [2] = biological target: T2, Avi-KRAS G12V (1-169) GppNHp/RAF1 RBD-3xFLAG (52-151) (Homo sapiens, UniProt P01116, G12V); experiment: Raf1-KRAS G12V-GppNHP disruption HTRF assay (Biological Example 1); assay type: binding
# T2 construct: Avi-KRAS G12V (1-169)
# Summary of the method: as §1
# [3] = biological target: T3, Avi-KRAS G12R (1-169) GppNHp/RAF1 RBD-3xFLAG (52-151) (Homo sapiens, UniProt P01116, G12R); experiment: Raf1-KRAS G12R-GppNHP disruption HTRF assay (Biological Example 1); assay type: binding
# T3 construct: Avi-KRAS G12R (1-169)
# Summary of the method: as §1
# GP2d cells (KRAS G12D) = experiment: Cell-based pERK HTRF assay in GP2d cell (Biological Example 2); conditions: GP2d, GP2d (KRAS G12D) cells, pERK HTRF
# Summary of the method: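 GP2d (KRAS G12D) cells were plated in DMEM/10% FBS and treated the next day for 60 min with compounds. Dosing used 9-point half-log series starting at 1 μM or 100 nM in 0.25% DMSO. Lysates were read by HTRF pERK (d2/Eu cryptate antibodies) after 4–24 h at room temperature, with excitation at 320 nm and emission at 615 nm.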
# [4] = biological target: T4, Avi-KRAS G12D (1-169) GppNHp/RAF1 RBD-3xFLAG (52-151) (Homo sapiens, UniProt P01116, G12D); experiment: Raf1-KRAS G12D-GppNHP disruption HTRF assay (Biological Example 1); assay type: binding
# T4 construct: Avi-KRAS G12D (1-169)
# Summary of the method: as §1
# SW620 cells (KRAS G12V) = experiment: Cell-based pERK HTRF assay in SW620 cell (Biological Example 4); conditions: Homo sapiens, SW-620, SW620 (KRAS G12V) cells, pERK HTRF
# Summary of the method: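 SW620 seeded in RPMI/10% FBS, next day dosed 4 h (top 1 μM, half-log, 9 pts, 0.25% DMSO). Lysed, pERK by d2/Eu cryptate HTRF, 4–24 h RT, 615 nm read.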
# [5] = KRAS WT, GppNHp-loaded, class symbols
# [6] = KRAS G12V, GppNHp-loaded, class symbols
# [7] = KRAS G12R, GppNHp-loaded, class symbols
# [8] = KRAS G12D, GppNHp-loaded, class symbols
# [9] = KRAS WT, GppNHp-loaded, Table 11
# [10] = KRAS G12V, GppNHp-loaded, Table 11
# [11] = KRAS G12R, GppNHp-loaded, Table 11
# [12] = KRAS G12D, GppNHp-loaded, Table 11
# T4 sequence (P01116 1-169 isoform P01116-2 G12D): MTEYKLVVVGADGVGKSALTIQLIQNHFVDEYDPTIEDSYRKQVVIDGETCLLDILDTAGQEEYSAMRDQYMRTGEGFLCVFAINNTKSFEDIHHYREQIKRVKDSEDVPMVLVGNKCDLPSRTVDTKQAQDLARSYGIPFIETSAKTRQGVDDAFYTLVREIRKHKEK
# T1 sequence (P01116 1-169 isoform P01116-2): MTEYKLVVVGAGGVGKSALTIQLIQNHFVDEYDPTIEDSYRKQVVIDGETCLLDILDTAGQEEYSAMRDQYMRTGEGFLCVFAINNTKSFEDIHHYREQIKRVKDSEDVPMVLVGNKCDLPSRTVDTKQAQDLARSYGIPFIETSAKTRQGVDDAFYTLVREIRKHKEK
# T3 sequence (P01116 1-169 isoform P01116-2 G12R): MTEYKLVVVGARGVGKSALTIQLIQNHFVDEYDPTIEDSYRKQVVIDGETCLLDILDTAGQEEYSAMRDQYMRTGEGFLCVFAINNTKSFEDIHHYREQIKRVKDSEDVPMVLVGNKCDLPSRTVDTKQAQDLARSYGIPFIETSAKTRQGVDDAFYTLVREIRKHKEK
# T2 sequence (P01116 1-169 isoform P01116-2 G12V): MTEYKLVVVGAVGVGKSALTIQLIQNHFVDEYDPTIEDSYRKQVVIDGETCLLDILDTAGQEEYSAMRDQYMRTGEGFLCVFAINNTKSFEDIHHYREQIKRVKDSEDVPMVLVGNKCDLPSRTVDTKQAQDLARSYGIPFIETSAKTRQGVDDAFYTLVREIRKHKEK
IC50 ([1]; KRAS WT-GppNHp/RAF1 RBD HTRF),IC50 ([2]; KRAS G12V-GppNHp/RAF1 RBD HTRF),IC50 ([3]; KRAS G12R-GppNHp/RAF1 RBD HTRF),IC50 (GP2d cells (KRAS G12D)),IC50 ([4]; KRAS G12D-GppNHp/RAF1 RBD HTRF),IC50 (SW620 cells (KRAS G12V)),"IC50 [1, 5]","IC50 [2, 6]","IC50 [3, 7]",IC50 (GP2d cells (KRAS G12D); class symbols),"IC50 [4, 8]",IC50 (SW620 cells (KRAS G12V); class symbols),"IC50 [1, 9]","IC50 [2, 10]","IC50 [3, 11]","IC50 [4, 12]",SMILES
1000 to 10000 nM,1000 to 10000 nM,1000 to 10000 nM,< 100 nM,100 to 1000 nM,100 to 1000 nM,,,,,,,,,,,CC(=O)N1C[C@@H](N(C)c2nc(OC[C@@]34CCCN3C[C@H](F)C4)nc3c(F)c(-c4ccc(F)c5sc(N)c(C#N)c45)c(C(F)(F)F)cc23)C[C@H]1CC#N [Compound 503]
,,,,,,< 100 nM,< 100 nM,< 100 nM,< 100 nM,< 100 nM,< 100 nM,,,,,CCN(c1nc(OCC23CCCN2CC(F)C3)nc2c(F)c(-c3ccc(F)c4sc(N)c(C#N)c34)c(C(F)(F)F)cc12)C1CCN(C(=O)c2oncc2C)C1 (stereo not drawn) [Compound 804]
100 to 1000 nM,100 to 1000 nM,100 to 1000 nM,< 100 nM,100 to 1000 nM,100 to 1000 nM,,,,,,,,,,,CN(c1nc(OC[C@@]23CCCN2C[C@H](F)C3)nc2c(F)c(-c3ccc(F)c4sc(N)c(C#N)c34)c(C(F)(F)F)cc12)[C@@H]1CC(=O)N(Cc2ccccc2)C1 [Compound 452]
,,,,,,100 to 1000 nM,< 100 nM,< 100 nM,< 100 nM,< 100 nM,< 100 nM,,,,,"CCN(c1nc(OC[C@@]23CCCN2C[C@H](F)C3)nc2c(F)c(-c3ccc(F)c4sc(N)c(C#N)c34)c(C(F)(F)F)cc12)[C@H]1CCN(C(=O)OCC2CC2)C1 (atropisomer, axis not shown) [Compound 620]"
,,,,,,100 to 1000 nM,100 to 1000 nM,100 to 1000 nM,< 100 nM,100 to 1000 nM,< 100 nM,,,,,"Cc1nnn2c1CN(c1nc(OC[C@@]34CCCN3C[C@H](F)C4)nc3c(F)c(-c4ccc(F)c5sc(N)c(C#N)c45)c(C(F)(F)F)cc13)[C@@H](C)C2 (atropisomer, axis not shown) [Compound 624]"
,,,,,,100 to 1000 nM,100 to 1000 nM,< 100 nM,< 100 nM,< 100 nM,< 100 nM,,,,,CCN(c1nc(OC[C@@]23CCCN2C[C@H](F)C3)nc2c(F)c(-c3ccc(F)c4sc(N)c(C#N)c34)c(C(F)(F)F)cc12)[C@H]1CCN(C(=O)C2CC(OC)C2)C1 (stereo partly drawn) [Compound 777]

# Further lines, the molecule ahead of its results:
SMILES,IC50 ([1]; KRAS WT-GppNHp/RAF1 RBD HTRF),IC50 ([2]; KRAS G12V-GppNHp/RAF1 RBD HTRF),IC50 ([3]; KRAS G12R-GppNHp/RAF1 RBD HTRF),IC50 (GP2d cells (KRAS G12D)),IC50 ([4]; KRAS G12D-GppNHp/RAF1 RBD HTRF),IC50 (SW620 cells (KRAS G12V)),"IC50 [1, 5]","IC50 [2, 6]","IC50 [3, 7]",IC50 (GP2d cells (KRAS G12D); class symbols),"IC50 [4, 8]",IC50 (SW620 cells (KRAS G12V); class symbols),"IC50 [1, 9]","IC50 [2, 10]","IC50 [3, 11]","IC50 [4, 12]"
C[C@@H]1[C@H](N(C)c2nc(OC[C@@]34CCCN3C[C@H](F)C4)nc3c(F)c(-c4ccc(F)c5sc(N)c(C#N)c45)c(Cl)cc23)CCN1C(=O)C(C)(F)F [Compound 420],1000 to 10000 nM,1000 to 10000 nM,1000 to 10000 nM,100 to 1000 nM,1000 to 10000 nM,100 to 1000 nM,,,,,,,,,,
CN1C[C@@H](N(C)c2nc(OC[C@@]34CCCN3C[C@H](F)C4)nc3c(F)c(-c4ccc(F)c5sc(N)c(C#N)c45)c(C(F)(F)F)cc23)CC1=O [Compound 338],100 to 1000 nM,100 to 1000 nM,100 to 1000 nM,< 100 nM,100 to 1000 nM,< 100 nM,,,,,,,,,,
N#Cc1c(N)sc2c(F)ccc(-c3c(C(F)(F)F)cc4c(N5CCS(=O)(=O)CC5)nc(OC[C@@]56CCCN5C[C@H](F)C6)nc4c3F)c12 [Compound 91],,,,< 100 nM,,< 100 nM,,,,,,,100 to 1000 nM,100 to 1000 nM,100 to 1000 nM,100 to 1000 nM
CN1CCN(c2nc(OC[C@@]34CCCN3C[C@H](F)C4)nc3c(F)c(-c4ccc(F)c5sc(N)c(C#N)c45)c(C(F)(F)F)cc23)CCC1=O [Compound 271],,,,< 100 nM,,< 100 nM,,,,,,,100 to 1000 nM,100 to 1000 nM,100 to 1000 nM,100 to 1000 nM
CCN(c1nc(OC[C@@]23CCCN2C[C@H](F)C3)nc2c(F)c(-c3ccc(F)c4sc(N)c(C#N)c34)c(C(F)(F)F)cc12)[C@@H]1CCN(C(C)=O)[C@H]1C [Compound 414],100 to 1000 nM,100 to 1000 nM,100 to 1000 nM,< 100 nM,100 to 1000 nM,100 to 1000 nM,,,,,,,,,,
